Results taken from patent US5574070A, “Substituted guanidines having high binding to the sigma receptor and the use thereof” (priority 1993, dated 1996).
Read-outs that look alike come from different tables or passages of the source.

Assays:
sigma receptor [1] = assay: [3H]DTG displacement radioligand binding assay, guinea pig brain membranes
[2] = target: T1, sigma receptor from guinea pig brain (Cavia porcellus, UniProt Q60492); assay: [3H]AZ-DTG binding and photoaffinity labeling of the sigma receptor; conditions: 10 uM
T1 construct: from tissue; host or cells: guinea pig brain membranes
T1 sequence (Q60492 whole entry): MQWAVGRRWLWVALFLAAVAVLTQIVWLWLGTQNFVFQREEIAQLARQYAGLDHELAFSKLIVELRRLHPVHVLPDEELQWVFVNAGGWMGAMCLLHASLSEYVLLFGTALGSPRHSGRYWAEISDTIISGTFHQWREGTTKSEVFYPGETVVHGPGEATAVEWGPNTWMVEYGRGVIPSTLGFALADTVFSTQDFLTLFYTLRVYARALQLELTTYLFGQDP
Procedure: The filters were then irradiated with long-wavelength UV light for a 15 minute period. Filter-bound proteins were solubilized with 50 mM Tris pH 7.4, 0.1% sodium dodecyl sulfate. Solubilized proteins were subjected to SDS-polyacrylamide gel electrophoresis.

sigma receptor [3] = target: sigma receptor (Cavia porcellus, UniProt Q60492); assay: biochemical
Sequence of sigma receptor (Cavia porcellus, UniProt Q60492) (Q60492 whole entry): as above

[4] = tested on: social interaction of rats; assay: rat social interaction test; assay type: in vivo, rat (male Hooded Lister)
From the text: A second preferred animal model is the rat social interaction test described by Jones, B. J. et al., supra, wherein the time that two mice spend in social interaction is quantified. […] Both the familiarity and the light level of the test arena may be manipulated. Undrugged rats show the highest level of social interaction when the test arena is familiar and is lit by low light. Social interaction declines if the arena is unfamiliar to the rats or is lit by bright light. Anxiolytic agents prevent this decline. The overall level of motor activity may also be measured to allow detection of drug effects specific to social behaviors.
Male Hooded Lister rats (Glaxo bred, 200-250 g), were housed 5 to a cage and were kept in the laboratory environment for at least a week before testing. Rats paired in the test were taken from separate cages.
The test arena consisted of an open-topped box, 62×62×33 cm with a 7×7 matrix of infra-red photocell beams in the walls, 2.5 cm from the floor.
Testing involved placing each member of a pair of rats in opposite comers of the arena and then leaving them undisturbed for 10 min. while recording their behavior remotely on videotape. The behavioral assessments were made subsequently from the recordings. The time spent in social interaction was measured and expressed as a cumulative total for the 10 min session. The behaviors that comprised social interaction were: following with contact, sniffing (but not sniffing of the hindquarters), crawling over and under, tumbling, boxing and grooming.

anxiety behavior of mice = assay: black:white test box (light/dark exploration) of mice
[5] = tested on: rats trained to discriminate cyclazocine; conditions: same concentrations; Holtzman, private communication; cited from earlier work
[3H]MK-801 = [3H]MK-801 displacement binding; conditions: read-out: IC50 vs [3H]MK-801; Table II; ± s.e.m. (n)
[6] = Example 25, guinea pig brain membrane homogenates, read-out: IC50 binding values
[7] = list of especially preferred compounds, read-out: IC50 (high binding to the sigma receptor)
[8] = read-out: IC50 vs [3H]DTG, Table II, ± s.e.m. (n)

## NCCc1c[nH]c2ccc(O)cc12 [5-OH-tryptamine, reference compound]
Sigma receptor [1]; 10 uM
  displacement of [3H]DTG: no significant displacement
[2]
  effect on [3H]AZ-DTG labeling of the 29 kD polypeptide: unaffected

## CCCN1CCC[C@@H](c2cccc(O)c2)C1 [(-)3-PPP, reference compound]
Sigma receptor [1]; [6]
  IC50: 280 ± 21 nM
Sigma receptor [1]; read-out: IC50 vs. [3H]DTG, Table III, ± SEM, average from 2-4 separate experiments in triplicate
  IC50: 280 ± 21 nM
Sigma receptor [3]
  IC50: 235 nM

## Cc1ccccc1NC(=N)NC12CC3CC(CC(C3)C1)C2 [AdTG, N-(Adamantan-1-yl)-N'-(2-methylphenyl)guanidine]
Sigma receptor [1]
  in vitro [3H]DTG displacement activity: found to possess the aforesaid in vitro [^3 H]DTG displacement activity
Sigma receptor [1]; [6]
  IC50: 7.6 ± 0.3 nM
Sigma receptor [1]; [7]
  IC50: 7.6 nM
Sigma receptor [1]; read-out: IC50, [3H]DTG displacement in guinea-pig brain homogenates, most potent, n=6
  IC50: 2.6 ± 0.6 nM
Sigma receptor [1]; read-out: IC50 vs [3H]DTG, Table I, guinea pig brain membranes
  IC50: 3 ± 1 nM
[4]; 0.1 mg/kg vs 1 mg/kg diazepam
  dose giving about the same result, relative to diazepam: about the same result at one-tenth the dose of diazepam
[4]; i.p., 10 min session, n=6, P<0.001
  time spent in social interaction: significantly increased social interactions
Anxiety behavior of mice; oral
  numbers of line crossings and/or rears in the light compartment (vs dark): increased at the expense of those in the dark compartment
  proportion of time in light area / percentage of time in black compartment: increased significantly the proportion of time the mice spent in the larger, lighted area
Anxiety behavior of mice; oral, 1 mg/kg
  anxiolytic activity: have anxiolytic activity when orally administered
Anxiety behavior of mice; s.c.
  latency to entering the dark compartment: increased in a dose-dependent manner
  numbers of line crossings and/or rears in the light compartment (vs dark): increased at the expense of those in the dark compartment
  proportion of time spent in the lighted area: dose dependently increased the proportion of time the mice spent in the larger, lighted area
  sedation: total numbers of rears and line crossings: did not decrease significantly showing that the drug was not sedative at this level

## N=C(Nc1ccccc1)Nc1ccccc1 [DPG, N,N'-di(phenyl)guanidine]
[5]
  substitution for cyclazocine: fully substitutable for cyclazocine

## NCCCC(=O)O [GABA, γ-aminobutyric acid, reference compound]
Sigma receptor [1]; 10 uM
  displacement of [3H]DTG: no significant displacement
[2]
  effect on [3H]AZ-DTG labeling of the 29 kD polypeptide: unaffected

## N=C(Nc1cccc2c1CCC2)Nc1cccc2c1CCC2 [N,N'-Di-(4-indanyl)-guanidine]
Sigma receptor [1]; [7]
  IC50: 28.5 nM
Sigma receptor [1]; [8]
  IC50: 28.5 nM
[3H]MK-801
  IC50: 506 nM

## N=C(Nc1ccccc1I)Nc1cccc2ccccc12 [N-(1-Naphthyl)-N'-(2-iodophenyl)-guanidine]
Sigma receptor [1]; [7]
  IC50: 40.1 nM
Sigma receptor [1]; [8]
  IC50: 40.1 nM
[3H]MK-801
  IC50: 209 nM

## N=C(Nc1ccc(F)cc1F)NC12CC3CC(CC(C3)C1)C2 [N-(Adamantan-1-yl)-N'-(2,4-difluorophenyl)guanidine]
Sigma receptor [1]; [7]
  IC50: 8.92 nM
Sigma receptor [1]; [8]
  IC50: 8.92 nM
[3H]MK-801
  IC50: > 10000 nM

## N=C(Nc1ccc(F)cc1C(F)(F)F)NC12CC3CC(CC(C3)C1)C2 [N-(Adamantan-1-yl)-N'-(2-trifluoromethyl-4-fluorophenyl)guanidine]
Sigma receptor [1]; [7]
  IC50: 4 nM
Sigma receptor [1]; [8]
  IC50: 4.27 nM
[3H]MK-801
  IC50: 31900 nM

## N=C(Nc1ccccc1C(F)(F)F)NC12CC3CC(CC(C3)C1)C2 [N-(Adamantan-1-yl)-N'-(2-trifluoromethylphenyl)guanidine]
Sigma receptor [1]; [7]
  IC50: 7.44 nM
Sigma receptor [1]; [8]
  IC50: 7.44 nM
[3H]MK-801
  IC50: 23100 nM

## N=C(Nc1ccc2oc(=O)ccc2c1)NC12CC3CC(CC(C3)C1)C2 [N-(Adamantan-1-yl)-N'-(6-coumarinyl)-guanidine]
Sigma receptor [1]; [7]
  IC50: 21.9 nM
Sigma receptor [1]; [8]
  IC50: 21.9 nM
[3H]MK-801
  IC50: > 10000 nM

## N=C(Nc1cccc2ccc(=O)oc12)NC12CC3CC(CC(C3)C1)C2 [N-(Adamantan-1-yl)-N'-(8-coumarinyl)-guanidine]
Sigma receptor [1]; [8]
  IC50: 43.9 nM
[3H]MK-801
  IC50: 6700 nM

## Cc1cc(Br)ccc1NC(=N)NC1CCCCC1 [N-Cyclohexyl-N'-(2-methyl-4-bromophenyl)guanidine]
Sigma receptor [1]
  in vitro [3H]DTG displacement activity: found to possess the aforesaid in vitro [^3 H]DTG displacement activity
Sigma receptor [1]; [6]
  IC50: 5.5 nM
Sigma receptor [1]; [7]
  IC50: 5.5 nM
Sigma receptor [1]; [8]
  IC50: 4.67 nM
[3H]MK-801
  IC50: 23900 nM

## NCCc1ccc(O)c(O)c1 [dopamine, reference compound]
Sigma receptor [1]
  displacement of [3H]DTG: no significant displacement
[2]
  effect on [3H]AZ-DTG labeling of the 29 kD polypeptide: unaffected
